Measurements: patent publication US7625929B2, “Oxophenyl-cyclohexyl-propanolamine derivatives, production and use thereof in therapeutics” (sanofi-aventis, priority 2002, dated 2009)

melting point [°C]	SMILES
125	CS(=O)(=O)c1cc(OC[C@@H](O)CN[C@H]2CC[C@H](c3ccc(C(=O)N4CCC5(CCc6ccccc65)CC4)cc3)CC2)ccc1O [compound No. 15, trans-4-{[(2S)-3-({4-[4-(2,3-dihydro-1′H-spiro[indene-1,4′-piperidin]-1′-ylcarbonyl)phenyl]-cyclohexyl}amino)-2-hydroxypropyl]oxy}-2-(methylsulfonyl)phenol]
125	CS(=O)(=O)c1cc(OC[C@@H](O)CN[C@H]2CC[C@H](c3ccc(C(=O)N4CCC5(CC4)Cc4ccccc4C5)cc3)CC2)ccc1O [compound No. 13, trans-4-{[(2S)-3-({4-[4-(1,3-dihydro-1′H-spiro[indene-2,4′-piperidin]-1′-ylcarbonyl)phenyl]-cyclohexyl}amino)-2-hydroxypropyl]oxy}-2-(methylsulfonyl)phenol]
125	CS(=O)(=O)c1cc(OC[C@@H](O)CN[C@H]2CC[C@H](c3ccc(C(=O)N4CCC5(CCCc6ccccc65)CC4)cc3)CC2)ccc1O [compound No. 17, trans-4-{[(2S)-3-({4-[4-(3,4-dihydro-1′H-spiro[naphthalene-1,4′-piperidin]-1′-ylcarbonyl)phenyl]cyclohexyl}amino)-2-hydroxypropyl]-oxy}-2-(methylsulfonyl)phenol]
